One assay concerns the target T1, AKT1 (Homo sapiens, UniProt P31749).
T1 construct: purchased Life Technologies (Invitrogen)
Nature of the assay: Z'-LYTE assay (AKT binding assay), AKT1. The note with it: 10-point dose response, Km ATP, read-out: Biochemical Binding AKT1. The method, then: (§1) Z′-LYTE assays (catalog number PV3193, Invitrogen™) were conducted for AKT1, AKT2, AKT3, PKG1, S6K1, PKN1, βMSK2, and Haspin at Life Technologies™ in a 10-point dose response using Km ATP concentrations. LanthaScreen™ assays were conducted for RET (V804M) in a 10-point dose response at Life Technologies™.

The target in a further assay is T2, AKT2 (Homo sapiens, UniProt P31751).
T2 construct: purchased Life Technologies (Invitrogen)
T2 sequence (P31751 whole entry): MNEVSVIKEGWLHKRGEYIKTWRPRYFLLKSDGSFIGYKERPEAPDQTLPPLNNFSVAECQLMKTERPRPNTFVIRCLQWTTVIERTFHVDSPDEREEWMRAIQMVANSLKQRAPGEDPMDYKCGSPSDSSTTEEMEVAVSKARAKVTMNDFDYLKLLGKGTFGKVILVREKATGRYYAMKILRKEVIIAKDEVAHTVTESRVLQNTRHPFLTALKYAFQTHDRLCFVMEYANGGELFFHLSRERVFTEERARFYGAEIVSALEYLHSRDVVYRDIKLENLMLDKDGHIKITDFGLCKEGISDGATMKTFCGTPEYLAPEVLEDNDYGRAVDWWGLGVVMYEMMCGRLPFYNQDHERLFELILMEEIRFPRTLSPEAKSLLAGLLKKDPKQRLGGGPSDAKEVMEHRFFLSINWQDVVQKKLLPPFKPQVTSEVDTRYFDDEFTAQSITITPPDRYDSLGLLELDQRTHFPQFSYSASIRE
Nature of the assay: Z'-LYTE assay (AKT binding assay), AKT2. The note with it: 10-point dose response, Km ATP, read-out: Biochemical Binding AKT2. The procedure:
as §1

The next assay deals with T3, AKT3 (Homo sapiens, UniProt Q9Y243).
T3 construct: purchased Life Technologies (Invitrogen)
T3 sequence (Q9Y243 whole entry): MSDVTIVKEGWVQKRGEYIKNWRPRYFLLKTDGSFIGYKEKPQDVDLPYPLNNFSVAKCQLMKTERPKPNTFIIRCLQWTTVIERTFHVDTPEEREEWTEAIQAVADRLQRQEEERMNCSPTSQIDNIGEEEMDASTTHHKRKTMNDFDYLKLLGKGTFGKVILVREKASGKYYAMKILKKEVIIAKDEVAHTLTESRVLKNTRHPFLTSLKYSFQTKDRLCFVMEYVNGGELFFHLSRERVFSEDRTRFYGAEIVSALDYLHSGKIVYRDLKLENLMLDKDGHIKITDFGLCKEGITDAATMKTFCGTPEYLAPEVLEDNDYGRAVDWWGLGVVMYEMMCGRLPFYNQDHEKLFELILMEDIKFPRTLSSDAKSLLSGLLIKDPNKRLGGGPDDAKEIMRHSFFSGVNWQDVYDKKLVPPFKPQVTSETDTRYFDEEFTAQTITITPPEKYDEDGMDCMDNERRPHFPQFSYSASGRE
Nature of the assay: Z'-LYTE assay (AKT binding assay), AKT3. The note with it: 10-point dose response, Km ATP, read-out: Biochemical Binding AKT3. The method, then: as §1

The next assay relates to ZR-75-1 cells. Put plainly: Growth inhibition rate (GR) assay in ZR-75-1 cells. The class given is cell-based. The settings on record: 72-hour treatment (FIG. 6A). From the text:
FIG. 6A-FIG. 6F are a set of graphs that show growth inhibition rate (GR) values across concentrations in ZR-75-1 (FIG. 6A), T47D (FIG. 6B), LNCaP (FIG. 6C), MCF-7 (FIG. 6D), MDA-MB-468 (FIG. 6E), and HCC1937 (FIG. 6F) cells after 72-hour treatment with GDC-0068 (blue), inventive bifunctional compound 10 (red), bifunctional compound 10-Me (negative control) (green), and lenalidomide (orange). Error bars represent the standard deviation of three technical replicates.

In assay [1] the test system is AKT1, AKT2 and AKT3. Put plainly: Immunoblot of AKT isoform degradation in MCF10A cells. The class given is cell-based, human. The note with it: 24-hour treatment. The procedure:
(§2) MDA-MB-468 (human breast cancer cell line) cells were maintained in RPMI 1640 (Wisent Bioproducts) supplemented with 10% FBS (Thermo Fisher Scientific) and MCF10A (human breast epithelial cell line) cells were maintained in Dulbecco's modified Eagle's medium (DMEM)/Ham's F12 (Wisent Bioproducts) supplemented with 5% equine serum (Fisher), insulin (10 μg/ml) (Life Technologies), hydrocortisone (500 ng/ml) (Sigma-Aldrich®), epidermal growth factor (20 ng/ml) (R&D Systems), and cholera toxin (100 ng/ml) (List Biological Lab). MDA-MB-468 and MCF10A cells were seeded at 250,000 cells/mL and 200,000 cells/mL, respectively. The following day cells were treated with inventive bifunctional compounds. After 24 hours, cells were washed with phosphate-buffered saline at 4° C. and lysed in radioimmunoprecipitation assay (RIPA) buffer (150 mM Tris-HCl, 150 mM NaCl, 0.5% (w/v) sodium deoxycholate, 1% (v/v) NP-40, pH 7.5) containing 0.1% (w/v) sodium dodecyl sulfate, 1 mM sodium pyrophosphate, 20 mM sodium fluoride, 50 nM calyculin, and 0.5% (v/v) protease inhibitor cocktail (Sigma-Aldrich®)). Cell extracts were precleared by centrifugation at 14,000 rpm for 10 minutes at 4° C. The Bio-Rad DC protein assay was used to assess protein concentration, and sample concentration was normalized using SDS sample buffer. […] Images were stored and analyzed using ImageStudio™ (LI-COR®) software. […]
(A western blot detects proteins with antibodies after separation by electrophoresis.)

For assay [2], the system named is AKT1, AKT2 and AKT3. Nature of the assay: Immunoblot of AKT isoform degradation in MDA-MB-468 cells. Type of assay: cell-based, human. The note with it: 24-hour treatment. The procedure: as §2

“Also recorded” adds a separate entry of the source.

Results on eight molecules are retold here after patent publication US12642857B2, “Degradation of AKT by conjugation of ATP-competitive AKT inhibitor GDC-0068 with E3 ligase ligands and methods of use” (DANA-FARBER CANCER INSTITUTE, INC., priority 2019, dated 2026).

T1 sequence (P31749 whole entry): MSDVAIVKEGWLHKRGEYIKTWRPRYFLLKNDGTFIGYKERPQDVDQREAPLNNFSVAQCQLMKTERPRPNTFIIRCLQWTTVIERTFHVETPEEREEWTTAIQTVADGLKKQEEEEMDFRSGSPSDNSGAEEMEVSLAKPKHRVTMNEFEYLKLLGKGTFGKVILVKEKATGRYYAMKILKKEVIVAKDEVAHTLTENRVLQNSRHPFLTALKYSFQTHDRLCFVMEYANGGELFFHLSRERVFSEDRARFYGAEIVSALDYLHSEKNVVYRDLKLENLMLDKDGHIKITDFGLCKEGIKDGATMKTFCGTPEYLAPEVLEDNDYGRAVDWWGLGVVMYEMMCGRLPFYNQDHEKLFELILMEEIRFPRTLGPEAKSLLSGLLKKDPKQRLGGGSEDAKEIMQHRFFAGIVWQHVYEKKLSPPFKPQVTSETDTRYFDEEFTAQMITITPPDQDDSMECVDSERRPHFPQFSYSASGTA

Take `C[C@@H]1C[C@@H](O)c2ncnc(N3CCN(C(=O)[C@H](CNCCCNC(=O)COc4cccc5c4C(=O)N(C4CCC(=O)NC4=O)C5=O)c4ccc(Cl)cc4)CC3)c21` (stereo partly drawn) [Compound 2, N-(3-(((S)-2-(4-chlorophenyl)-3-(4-((5R,7R)-7-hydroxy-5-methyl-6,7-dihydro-5H-cyclopenta[d]pyrimidin-4-yl)piperazin-1-yl)-3-oxopropyl)-amino)propyl)-2-((2-(2,6-dioxopiperidin-3-yl)-1,3-dioxoisoindolin-4-yl)oxy) acetamide]: the IC50 on AKT1 is 3.93 nM; at AKT2, 31.4 nM; at AKT3, 20.4 nM. As to `C[C@@H]1C[C@@H](O)c2ncnc(N3CCN(C(=O)[C@H](CNCCCCCCCCC#Cc4cccc5c4CN(C4CCC(=O)NC4=O)C5=O)c4ccc(Cl)cc4)CC3)c21` (stereo partly drawn) [Compound 7, 3-(4-(10-(((S)-2-(4-chlorophenyl)-3-(4-((5R,7R)-7-hydroxy-5-methyl-6,7-dihydro-5H-cyclopenta[d]pyrimidin-4-yl)piperazin-1-yl)-3-oxopropyl)amino)dec-1-yn-1-yl)-1-oxoisoindolin-2-yl)piperidine-2,6-dione], the IC50 on AKT1 was 2.46 nM.

`C[C@@H]1C[C@@H](O)c2ncnc(N3CCN(C(=O)[C@H](CNCCCCc4cccc5c4C(=O)N(C4CCC(=O)NC4=O)C5=O)c4ccc(Cl)cc4)CC3)c21` (stereo partly drawn) [Compound 9, 4-(4-(((S)-2-(4-chlorophenyl)-3-(4-((5R,7R)-7-hydroxy-5-methyl-6,7-dihydro-5H-cyclopenta[d]pyrimidin-4-yl)piperazin-1-yl)-3-oxopropyl)amino)butyl)-2-(2,6-dioxopiperidin-3-yl)isoindoline-1,3-dione]: the IC50 at AKT1 came out at 1.8 nM. On to `C[C@@H]1C[C@@H](O)c2ncnc(N3CCN(C(=O)[C@H](CNCCCCCCCCCCc4cccc5c4CN(C4CCC(=O)N(C)C4=O)C5=O)c4ccc(Cl)cc4)CC3)c21` (stereo partly drawn) [Compound 10-Me, 3-(4-(10-(((S)-2-(4-chlorophenyl)-3-(4-((5R,7R)-7-hydroxy-5-methyl-6,7-dihydro-5H-cyclopenta[d]pyrimidin-4-yl)piperazin-1-yl)-3-oxopropyl)amino)decyl)-1-oxoisoindolin-2-yl)-1-methylpiperidine-2,6-dione], for which the “Anti-proliferative potency relative to compound 10” value in the assay with ZR-75-1 cells is given as “significantly less potent”. Also, in the assay with ZR-75-1 cells (Homo sapiens, read-out: GR50), the GR50 was 413 nM. With `Cc1ncsc1-c1ccc([C@H](C)NC(=O)[C@@H]2C[C@@H](O)CN2C(=O)[C@@H](NC(=O)CCOCCCNC[C@@H](C(=O)N2CCN(c3ncnc4c3[C@H](C)CC4)CC2)c2ccc(Cl)cc2)C(C)(C)C)cc1` [Compound 1, (2S,4R)-1-((S)-2-(3-(3-(((S)-2-(4-chlorophenyl)-3-(4-((R)-5-methyl-6,7-dihydro-5H-cyclopenta[d]pyrimidin-4-yl)piperazin-1-yl)-3-oxopropyl)amino)propoxy)propanamido)-3,3-dimethylbutanoyl)-4-hydroxy-N—((S)-1-(4-(4-methylthiazol-5-yl)phenyl)ethyl)pyrrolidine-2-carboxamide], the “Degradation of AKT isoforms” value in the assay on AKT1, AKT2 and AKT3 [1] is “degraded in MCF10A cells in a dose-dependent manner”; with AKT1, AKT2 and AKT3 [2] it was “degraded in MDA-MB-468 cells in a dose-dependent manner; also recorded: degraded in MDA-MB-468 cells (FIG. 3)”. The IC50 turned out to be 1.58 nM at AKT1, 15.1 nM on AKT2 and 4.94 nM on AKT3. On to `C[C@@H]1C[C@@H](O)c2ncnc(N3CCN(C(=O)[C@H](CNCCOCCNC(=O)COc4cccc5c4C(=O)N(C4CCC(=O)NC4=O)C5=O)c4ccc(Cl)cc4)CC3)c21` (stereo partly drawn) [Compound 5, N-(2-(2-(((S)-2-(4-chlorophenyl)-3-(4-((5R,7R)-7-hydroxy-5-methyl-6,7-dihydro-5H-cyclopenta[d]pyrimidin-4-yl)piperazin-1-yl)-3-oxopropyl)amino)ethoxy)ethyl)-2-((2-(2,6-dioxopiperidin-3-yl)-1,3-dioxoisoindolin-4-yl)oxy)acetamide], for which the IC50 at AKT1 stood at 3.4 nM. As to `C[C@@H]1C[C@@H](O)c2ncnc(N3CCN(C(=O)[C@H](CNCCOCCOCCNC(=O)COc4cccc5c4C(=O)N(C4CCC(=O)NC4=O)C5=O)c4ccc(Cl)cc4)CC3)c21` (stereo partly drawn) [Compound 4, N-(2-(2-(2-(((S)-2-(4-chlorophenyl)-3-(4-((5R,7R)-7-hydroxy-5-methyl-6,7-dihydro-5H-cyclopenta[d]pyrimidin-4-yl)piperazin-1-yl)-3-oxopropyl)amino)ethoxy)ethoxy)ethyl)-2-((2-(2,6-dioxopiperidin-3-yl)-1,3-dioxoisoindolin-4-yl)oxy)acetamide], at AKT1, the IC50 turned out to be 6.97 nM. Same read-out and setting: next, `Cc1ncsc1-c1ccc([C@H](C)NC(=O)[C@@H]2C[C@@H](O)CN2C(=O)[C@@H](NC(=O)CCOCCOCCNC[C@@H](C(=O)N2CCN(c3ncnc4c3[C@H](C)C[C@H]4O)CC2)c2ccc(Cl)cc2)C(C)(C)C)cc1` [Compound 6, (2S,4R)-1-((2S,15S)-2-(tert-butyl)-15-(4-chlorophenyl)-16-(4-((5R,7R)-7-hydroxy-5-methyl-6,7-dihydro-5H-cyclopenta[d]pyrimidin-4-yl)piperazin-1-yl)-4,16-dioxo-7,10-dioxa-3,13-diazahexadecanoyl)-4-hydroxy-N—((S)-1-(4-(4-methylthiazol-5-yl)phenyl)ethyl)pyrrolidine-2-carboxamide]: 3.8 nM.
